Reference: US20230120211A1, “HDAC Degrader” (University of Leicester, priority 2020, published 2023)

How the values were obtained:
H3K56Ac [1] = assay: Increase of H3K56Ac (Table 1 screen); format: cell-based, human; conditions: HCT116 screen; cell line not restated at the table
Description: (§1) The compounds were screened at 0.1 μM, 1 μM and 10 μM in a HCT116 cell line. The maximum degradation observed irrespective of the concertation was recorded. The screening of the new compounds was done in 6-well plates, 5 mL media, with 400,000 cells per well to increase throughput.
(§2) HCT116 or mES cells were treated 24 hours after seeding. 24 hours post treatment, cells were harvested, lysed in lysis buffer (50 mM Tris-HCl, 150 mM NaCl, 0.5% NP-40, 0.5% Triton X-100) with protease inhibitor (Sigma, P8340), then incubated on ice for 30 minutes, before being centrifuged (18,000 ref, 15 minutes, 4° C.). The supernatant was collected, and protein concentrations quantified via Bradford Assay using Protein Assay Dye Reagent Concentrate (BIO-RAD). For histone extraction, an equal volume of 0.4 N H2SO4 was added to the pellets and the extracts placed at 4° C. overnight. Following overnight incubation, the tubes were centrifuged (18,000 ref, 15 minutes, 4° C.) and then the supernatant (histone extract) collected.
(§3) Western blots were run on NuPAGE™ 4-12% Bis-Tris gels with 20-30 μg of protein or 10 μL of acid-extracted histone loaded per lane, using NuPAGE™ LDS Sample Buffer (4×). PageRuler™ Plus Prestained Ladder was used for size standards. After gel electrophoresis at 140V for 75-90 minutes the separated proteins were transferred onto nitrocellulose membrane at 30V for 60 minutes. The membranes were probed with primary antibodies (listed below) for 60-90 minutes. Blots were developed with complimentary IRDye conjugated secondary antibodies and the bands visualised using the Odyssey Infrared Imaging System. Image processing and band intensity quantification was performed using Image Studio Lite.

HDAC1 [2] = molecular target: T1, HDAC1 (Homo sapiens, UniProt Q13547); assay: HDAC1 degradation in HCT116 cells, quantitative western blot; format: cell-based; conditions: for Dmax: HCT-116, 24 h, read-out: HDAC1 Degrader (% Degradation)
T1 construct: endogenous in cells; host or cells: HCT116
T1 sequence (Q13547 whole entry): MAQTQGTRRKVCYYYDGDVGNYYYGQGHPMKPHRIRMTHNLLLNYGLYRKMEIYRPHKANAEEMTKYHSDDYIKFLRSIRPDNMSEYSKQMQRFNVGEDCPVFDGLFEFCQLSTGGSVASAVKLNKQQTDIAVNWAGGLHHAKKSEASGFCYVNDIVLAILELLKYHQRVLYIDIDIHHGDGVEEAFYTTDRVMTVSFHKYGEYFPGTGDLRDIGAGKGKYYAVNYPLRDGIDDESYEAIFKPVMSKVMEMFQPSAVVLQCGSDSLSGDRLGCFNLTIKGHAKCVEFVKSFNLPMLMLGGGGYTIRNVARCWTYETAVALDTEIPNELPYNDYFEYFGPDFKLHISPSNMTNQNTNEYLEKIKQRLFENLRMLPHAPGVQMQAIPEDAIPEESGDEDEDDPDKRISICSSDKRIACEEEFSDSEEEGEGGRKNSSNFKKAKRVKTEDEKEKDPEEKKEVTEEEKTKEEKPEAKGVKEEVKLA
Description: as §1, §2
as §3, with “PageRuler™” for “Western blots were run on NuPAGE™ 4-12% Bis-Tris gels with 20-30 μg of protein or 10 μL of acid-extracted histone loaded per lane, using NuPAGE™ LDS Sample Buffer (4×). PageRuler™”

HDAC2 [3] = molecular target: T2, HDAC2 (Homo sapiens, UniProt Q92769); assay: HDAC2 degradation in HCT116 cells, quantitative western blot; format: cell-based; conditions: for Dmax: HCT-116, 24 h, read-out: HDAC 2 Degrader (% Degradation)
T2 construct: endogenous in cells; host or cells: HCT116
T2 sequence (Q92769 whole entry): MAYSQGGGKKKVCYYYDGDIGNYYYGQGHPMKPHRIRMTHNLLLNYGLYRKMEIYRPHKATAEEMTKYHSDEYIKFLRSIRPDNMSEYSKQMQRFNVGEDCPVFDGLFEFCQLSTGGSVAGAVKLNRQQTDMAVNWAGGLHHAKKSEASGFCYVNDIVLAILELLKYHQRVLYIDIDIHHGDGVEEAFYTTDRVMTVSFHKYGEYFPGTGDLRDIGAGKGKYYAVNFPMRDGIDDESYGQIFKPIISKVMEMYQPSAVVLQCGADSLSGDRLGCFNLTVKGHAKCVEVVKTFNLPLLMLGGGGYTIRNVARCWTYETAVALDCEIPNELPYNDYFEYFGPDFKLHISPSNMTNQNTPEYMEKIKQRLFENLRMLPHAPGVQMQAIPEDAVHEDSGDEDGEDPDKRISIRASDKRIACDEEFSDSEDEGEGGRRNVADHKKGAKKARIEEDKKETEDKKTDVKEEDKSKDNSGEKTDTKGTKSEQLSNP
Description: as §1, §2
as §3, with “PageRuler™” for “Western blots were run on NuPAGE™ 4-12% Bis-Tris gels with 20-30 μg of protein or 10 μL of acid-extracted histone loaded per lane, using NuPAGE™ LDS Sample Buffer (4×). PageRuler™”

HDAC3 = molecular target: T3, HDAC3 (Homo sapiens, UniProt O15379); assay: HDAC3 degradation in HCT116 cells, quantitative western blot; format: cell-based; conditions: for Dmax: HCT-116, 24 h, HCT116, screened at 0.1, 1 and 10 μM, maximum degradation irrespective of concentration, read-out: HDAC 3 degrader (% Degradation)
T3 construct: endogenous in cells; host or cells: HCT116
T3 sequence (O15379 whole entry): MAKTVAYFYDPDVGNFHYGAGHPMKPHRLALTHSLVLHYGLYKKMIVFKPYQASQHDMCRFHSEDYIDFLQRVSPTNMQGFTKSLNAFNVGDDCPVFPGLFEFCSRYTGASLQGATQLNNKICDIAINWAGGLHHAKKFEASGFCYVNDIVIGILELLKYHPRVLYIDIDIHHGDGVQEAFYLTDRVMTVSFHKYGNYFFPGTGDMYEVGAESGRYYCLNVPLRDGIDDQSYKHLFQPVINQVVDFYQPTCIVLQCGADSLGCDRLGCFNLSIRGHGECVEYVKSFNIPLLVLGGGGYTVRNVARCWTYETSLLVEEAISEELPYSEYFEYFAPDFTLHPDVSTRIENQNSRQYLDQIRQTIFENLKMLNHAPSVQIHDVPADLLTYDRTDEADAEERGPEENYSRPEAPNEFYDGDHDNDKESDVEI
Description: as §1, §2
as §3, with “PageRuler™” for “Western blots were run on NuPAGE™ 4-12% Bis-Tris gels with 20-30 μg of protein or 10 μL of acid-extracted histone loaded per lane, using NuPAGE™ LDS Sample Buffer (4×). PageRuler™”

NuRD = NuRD (Homo sapiens, UniProt Q13547); assay: HDAC inhibition assay, NuRD complex (Table 1); format: biochemical
Sequence of NuRD (Q13547 whole entry): as the sequence (Q13547 whole entry) above
Sequence of NuRD (Q13330 162-546 partner limits assumed): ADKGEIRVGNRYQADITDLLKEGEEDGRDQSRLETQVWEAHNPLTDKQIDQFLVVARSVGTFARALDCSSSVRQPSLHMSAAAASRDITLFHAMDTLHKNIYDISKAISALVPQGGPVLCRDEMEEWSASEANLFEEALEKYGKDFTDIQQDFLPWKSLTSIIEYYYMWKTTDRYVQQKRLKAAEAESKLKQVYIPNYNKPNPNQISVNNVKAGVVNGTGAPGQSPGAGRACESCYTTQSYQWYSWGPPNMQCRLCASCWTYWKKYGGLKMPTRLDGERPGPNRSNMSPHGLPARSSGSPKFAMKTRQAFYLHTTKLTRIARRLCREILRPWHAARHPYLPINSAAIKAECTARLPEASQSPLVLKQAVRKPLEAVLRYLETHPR
Sequence of NuRD (Q09028 whole entry partner): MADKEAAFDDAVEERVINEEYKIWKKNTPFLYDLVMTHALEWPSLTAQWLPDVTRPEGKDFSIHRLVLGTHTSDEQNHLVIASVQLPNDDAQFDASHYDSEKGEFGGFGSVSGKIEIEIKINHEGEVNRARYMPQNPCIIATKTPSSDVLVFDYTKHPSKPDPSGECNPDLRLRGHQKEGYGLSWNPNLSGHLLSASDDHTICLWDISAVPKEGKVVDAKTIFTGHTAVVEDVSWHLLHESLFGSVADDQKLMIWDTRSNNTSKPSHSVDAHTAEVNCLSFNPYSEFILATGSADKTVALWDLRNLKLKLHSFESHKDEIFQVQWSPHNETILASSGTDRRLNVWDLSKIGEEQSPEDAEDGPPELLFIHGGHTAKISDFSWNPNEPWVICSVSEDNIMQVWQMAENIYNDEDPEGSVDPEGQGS

H3K9ac = assay: Histone H3 Lys9 acetylation levels in HCT116 cells; format: cell-based, human; conditions: HCT116, 24 h, 10 μM
Description: Acetylation levels of Histone H3 Lys9 (H3K9ac), another established residue for HDAC activity, were also determined in HCT116 cells after 24 hours treatment with PROTAC 4.
as §2
as §3, with “The membranes were probed with primary antibodies (listed below) for 60-90 minutes. Blots were developed with complimentary IRDye conjugated secondary antibodies and the bands visualised using the Odyssey Infrared Imaging System.” left out

CoREST = CoREST (Homo sapiens, UniProt Q13547); assay: HDAC inhibition assay, CoREST complex (Table 1, run under different conditions); format: biochemical; conditions: Table 1 conditions (differ from FIG. 3)
Sequence of CoREST (Q13547 whole entry, other chains not shown): as the sequence (Q13547 whole entry) above
Sequence of CoREST (Q9UKL0 86-485 partner limits assumed, other chains not shown): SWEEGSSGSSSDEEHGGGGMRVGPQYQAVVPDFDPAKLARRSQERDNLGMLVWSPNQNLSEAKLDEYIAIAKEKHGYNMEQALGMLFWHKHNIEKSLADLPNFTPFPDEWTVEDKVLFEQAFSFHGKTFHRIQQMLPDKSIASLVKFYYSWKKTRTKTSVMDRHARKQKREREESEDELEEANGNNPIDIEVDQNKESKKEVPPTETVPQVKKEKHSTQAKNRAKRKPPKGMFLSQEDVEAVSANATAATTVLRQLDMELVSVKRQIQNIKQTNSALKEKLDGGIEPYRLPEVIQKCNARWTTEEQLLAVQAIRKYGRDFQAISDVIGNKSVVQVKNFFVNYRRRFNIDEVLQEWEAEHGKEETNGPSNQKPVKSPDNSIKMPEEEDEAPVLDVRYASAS
Description: (§4) Inhibition tests against LSD1-HDAC-CoREST complex were performed using a two-enzyme fluorescence-based HDAC assay. The inhibitor/PROTACs were dissolved at 50 mM in DMSO, then 1:2 serial dilutions performed using HDAC assay buffer (50 mM Tris pH 7.5, 150 mM NaCl) to afford range of concentrations.
(§5) The assays were performed in black 96-well plates with a reaction volume of 50 μL per well. All determinations were performed in triplicate. […] After an incubation of 20 minutes at 37° C. and 150 rpm, deacetylation was stopped by the addition of 50 μL of a developing solution containing trypsin (50 mM Tris pH 7.5, 100 mM NaCl, 10 mg/mL trypsin). […] HDAC Activity was calculated by subtracting the average blank fluorescence from the well fluorescence. Graphpad Prism software was utilised to determine IC50 values.

MiDAC = MiDAC (Homo sapiens, UniProt Q13547); assay: HDAC inhibition assay, MiDAC complex (Table 1); format: biochemical
Sequence of MiDAC (Q13547 whole entry): as the sequence (Q13547 whole entry) above
Sequence of MiDAC (Q6PJG2 628-887 partner limits assumed): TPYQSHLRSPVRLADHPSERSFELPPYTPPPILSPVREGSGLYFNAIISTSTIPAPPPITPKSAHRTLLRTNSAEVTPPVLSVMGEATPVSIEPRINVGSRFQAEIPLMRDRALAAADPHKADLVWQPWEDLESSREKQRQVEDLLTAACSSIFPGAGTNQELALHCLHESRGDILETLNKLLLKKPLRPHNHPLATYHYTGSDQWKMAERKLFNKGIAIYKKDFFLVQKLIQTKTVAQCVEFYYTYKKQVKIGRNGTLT
Sequence of MiDAC (Q9H147 whole entry partner): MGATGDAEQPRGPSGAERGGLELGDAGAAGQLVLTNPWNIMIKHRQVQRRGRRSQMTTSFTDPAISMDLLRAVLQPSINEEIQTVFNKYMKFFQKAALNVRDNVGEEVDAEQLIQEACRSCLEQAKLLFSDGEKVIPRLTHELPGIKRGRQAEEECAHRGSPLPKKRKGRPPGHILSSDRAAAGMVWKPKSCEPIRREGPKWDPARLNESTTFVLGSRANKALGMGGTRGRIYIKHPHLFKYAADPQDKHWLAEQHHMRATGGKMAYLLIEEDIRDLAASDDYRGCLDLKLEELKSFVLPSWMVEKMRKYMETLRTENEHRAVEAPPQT

SMRT = SMRT (Homo sapiens, UniProt O15379); assay: HDAC inhibition assay, SMRT complex (Table 1); format: biochemical
Sequence of SMRT (O15379 whole entry): as the sequence (O15379 whole entry) above
Sequence of SMRT (Q9Y618 389-480 partner limits assumed): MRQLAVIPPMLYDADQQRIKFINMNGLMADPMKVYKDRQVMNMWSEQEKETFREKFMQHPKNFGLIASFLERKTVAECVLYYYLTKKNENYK

HDAC2 [4] = molecular target: T2, HDAC2; assay: HDAC2 degradation in HCT116 cells, quantitative western blot; format: cell-based; conditions: HCT116, 24 h, 10 nM
H3K56ac [5] = assay: H3K56ac levels in E14 mouse embryonic stem cells, quantitative western blot; format: cell-based; conditions: E14 mES cells, 24 h; CI-994 40 μM, Panobinostat 30 nM
Description: The inventors proceeded to assess their compounds effects on HDAC activity in cells.
To examine the ability of PROTACs 1-4 to reduce HDAC1, 2 and 3 activity in cells they began by measuring H3K56ac using quantitative western blotting (see FIG. 3B).
as §2, §3

[6] = molecular target: LSD1-CoREST-HDAC1 complex (Homo sapiens, UniProt Q13547); assay: fluorescent deacetylase assay with the LSD1-CoREST-HDAC1 complex (Example 2, FIG. 3A); format: biochemical
Sequence of LSD1-CoREST-HDAC1 complex (Q13547 whole entry, other chains not shown): as the sequence (Q13547 whole entry) above
Sequence of LSD1-CoREST-HDAC1 complex (Q9UKL0 86-485 partner limits assumed, other chains not shown): as the sequence (Q9UKL0 86-485 partner limits assumed, other chains not shown) above
Description: The inventors evaluated their preliminary PROTACs in vitro using an established fluorescent deacetylase assay with the LSD1-CoREST-HDAC1 complex. This complex was used as an exemplary HDAC multiprotein complex to determine if such heterobifunctional molecules PROTACs 1-4 can still engage the HDAC enzyme in the context of an intact multiprotein complex.
as §4, §5

HDAC1 [7] = molecular target: T1, HDAC1; assay: HDAC1 degradation in HCT116 cells, quantitative western blot; format: cell-based; conditions: HCT116, 24 h, 10 nM
[8] = test system: HCT116 colon cancer cell line; assay: Cell cycle / cell death by FACS in HCT116 colon cancer cell line; format: cell-based, human; conditions: HCT116, 48 hours, 10 μM
Description: The inventors then investigated the effect of PROTAC 4 on the cell cycle in the colon cancer HCT116 cell line.
[…] Cells were washed in PBS prior to incubation with […] of propidium iodide and RNase A (10 μg/mL) for 30 min at room temperature in the dark. Samples were analysed using the BD FACSCanto II flow cytometer (BD Biosciences) in the PE A channel with BD FACSDiva software.

[9] = HCT116, screened at 0.1, 1 and 10 μM, maximum degradation irrespective of concentration
[10] = HCT116, 24 h, 1 μM, remaining level

Dmax (HDAC3) [%] | Dmax (HDAC1 [2]; [9]) [%] | Dmax (HDAC2 [3]; [9]) [%] | IC50 (NuRD) [nM] | IC50 (CoREST) [nM] | IC50 (MiDAC) [nM] | IC50 (SMRT) [nM] | SMILES | Increase H3K56Ac (Y/N/partial) (H3K56Ac [1]) | also measured
63 | 85 | 76 | 418 | 394 | 336 | 414 | Cc1ncsc1-c1ccc(CNC(=O)[C@@H]2C[C@@H](O)CN2C(=O)[C@@H](NC(=O)CCCCCCCCCCC(=O)Nc2ccc(C(=O)Nc3ccccc3N)cc2)C(C)(C)C)cc1 [PROTAC4, N1-(4-((2-aminophenyl)carbamoyl)phenyl)-N12-((S)-1-((2S,4R)-4-hydroxy-2-((4-(4-methylthiazol-5-yl)benzyl)carbamoyl)pyrrolidin-1-yl)-3,3-dimethyl-1-oxobutan-2-yl)dodecanediamide] |  | H3K9 acetylation levels compared to DMSO control (H3K9ac): highly elevated; HDAC2 levels (HDAC2 [4]): not recovered; H3K56 acetylation level (H3K56ac [5]): increase in acetylation to similar levels; IC50 ([6]; LSD1-CoREST-HDAC1 complex in vitro): 16800 nM; HDAC1 levels (HDAC1 [7]): not recovered; HDAC1 degradation (HDAC1 [2]; HCT116, 24 h, 1 μM): approximately 50%; HDAC1 level (DMSO control = 100%) (HDAC1 [2]; [10]): 40-48%; HDAC1 degradation (HDAC1 [2]; HCT116, 24 h, 10 μM): near complete degradation; cell death [8]: significant cell death; HDAC2 degradation (HDAC2 [3]; HCT116, 24 h, 1 μM): approximately 50%; HDAC2 level (DMSO control = 100%) (HDAC2 [3]; [10]): 40-48%; HDAC2 degradation (HDAC2 [3]; HCT116, 24 h, 10 μM): near complete degradation; HDAC3 degradation (HDAC3; HCT116, 24 h, 1 μM): approximately 50%; HDAC3 level (DMSO control = 100%) (HDAC3; [10]): 40-48%; HDAC3 levels (HDAC3; HCT116, 24 h, 10 μM): decreased
69 | 58 | 52 | 1180 | 845 | 1430 | 345 | Cc1ncsc1-c1ccc(CNC(=O)[C@@H]2C[C@@H](O)CN2C(=O)[C@@H](NC(=O)COCCCCCCCCC(=O)Nc2ccc(C(=O)Nc3ccccc3N)cc2)C(C)(C)C)cc1 [PROTAC13, (2S,4R)-1-((S)-2-(2-((9-((4-((2-aminophenyl)carbamoyl)phenyl)amino)-9-oxononyl)oxy)acetamido)-3,3-dimethylbutanoyl)-4-hydroxy-N-(4-(4-methylthiazol-5-yl)benzyl)pyrrolidine-2-carboxamide] |  | 

The next lines start with the compound.

SMILES | Dmax (HDAC3) [%] | Dmax (HDAC1 [2]; [9]) [%] | Dmax (HDAC2 [3]; [9]) [%] | IC50 (NuRD) [nM] | IC50 (CoREST) [nM] | IC50 (MiDAC) [nM] | IC50 (SMRT) [nM] | Increase H3K56Ac (Y/N/partial) (H3K56Ac [1]) | also measured
CN[C@@H](C)C(=O)N[C@H](C(=O)N1C[C@@H](NC(=O)COCCOCCOCC(=O)Nc2ccc(C(=O)Nc3ccccc3N)cc2)C[C@H]1C(=O)N[C@@H]1CCCc2ccccc21)C1CCCCC1 [PROTAC28, (2S,4S)-4-(2-(2-(2-(2-((4-((2-aminophenyl)carbamoyl)phenyl)amino)-2-oxoethoxy)ethoxy)ethoxy)acetamido)-1-((S)-2-cyclohexyl-2-((S)-2-(methylamino)propanamido)acetyl)-N-((R)-1,2,3,4-tetrahydronaphthalen-1-yl)pyrrolidine-2-carboxamide] | 57 |  |  |  |  |  |  | partial | HDAC1 Degrader (% Degradation) (HDAC1 [2]; [9]): No; HDAC 2 Degrader (% Degradation) (HDAC2 [3]; [9]): No
Cc1ncsc1-c1ccc(CNC(=O)[C@@H]2C[C@@H](O)CN2C(=O)[C@@H](NC(=O)COCCCCCCCCCOCC(=O)Nc2ccc(C(=O)Nc3ccc(F)cc3N)cc2)C(C)(C)C)cc1 [PROTAC20, (2S,4R)-1-((S)-2-(2-((9-(2-((4-((2-amino-4-fluorophenyl)carbamoyl)phenyl)amino)-2-oxoethoxy)nonyl)oxy)acetamido)-3,3-dimethylbutanoyl)-4-hydroxy-N-(4-(4-methylthiazol-5-yl)benzyl)pyrrolidine-2-carboxamide] | 67 | 51 | 26 |  |  |  |  | partial | 
CC(=O)Nc1ccc(C(=O)Nc2ccccc2NC(=O)OC(C)(C)C)cc1 [Compound 5, Tert-butyl (2-(4-acetamidobenzamido)phenyl)carbamate, reference compound] |  |  |  |  |  |  |  |  | HDAC inhibition ([6]; LSD1-CoREST-HDAC1 complex): no HDAC inhibition
Cc1ncsc1-c1ccc(CNC(=O)[C@@H]2C[C@@H](O)CN2C(=O)[C@@H](NC(=O)CCCCCCCCCCC(=O)Nc2ccc(C(=O)Nc3ccc(F)cc3N)cc2)C(C)(C)C)cc1 [PROTAC17, N1-(4-((2-amino-4-fluorophenyl)carbamoyl)phenyl)-N12-((S)-1-((2S,4R)-4-hydroxy-2-((4-(4-methylthiazol-5-yl)benzyl)carbamoyl)pyrrolidin-1-yl)-3,3-dimethyl-1-oxobutan-2-yl)dodecanediamide] | 46 | 58 | 21 |  | 3810 |  | 860 | partial | 
